The results in this text go back to US7192949B2, “Substituted bicyclic pyrimidinones as a mitotic kinesin KSP inhibitors” (Merck & Co., Inc., priority 2001, dated 2007).

Some results are limits rather than exact numbers.

For this assay, the target named is T1, human KSP motor domain (KSP(367H)) (Homo sapiens, UniProt P52732).
T1 construct: were used to amplify the motor domain and the neck linker region; made in house; host or cells: E. coli BL21 (DE3), pRSETa vector
T1 sequence (P52732 18-359 limits assumed): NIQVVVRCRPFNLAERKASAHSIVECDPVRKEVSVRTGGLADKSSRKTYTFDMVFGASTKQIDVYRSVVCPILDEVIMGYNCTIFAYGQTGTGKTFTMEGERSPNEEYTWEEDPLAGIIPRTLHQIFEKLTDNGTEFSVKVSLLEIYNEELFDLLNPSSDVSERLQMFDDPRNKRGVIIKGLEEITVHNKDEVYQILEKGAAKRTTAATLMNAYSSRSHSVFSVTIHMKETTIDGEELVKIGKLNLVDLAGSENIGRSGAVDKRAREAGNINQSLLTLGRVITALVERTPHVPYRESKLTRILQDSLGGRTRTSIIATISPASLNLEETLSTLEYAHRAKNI
The assay can be described thus: Kinesin ATPase In Vitro Assay. The assay is classed as biochemical. The conditions noted are these: kinesin motor domain with microtubules, 1 mM ATP, 23° C.; free phosphate by quinaldine red/ammonium molybdate, absorbance 540 nm. The source says:
I. Kinesin ATPase In Vitro Assay
Cloning and Expression of Human Poly-Histidine Tagged KSP Motor Domain (KSP(367H))
Plasmids for the expression of the human KSP motor domain construct were cloned by PCR using a pBluescript full length human KSP construct (Blangy et al., Cell, vol.83, pp 1159–1169, 1995) as a template. The N-terminal primer 5′-[…] (SEQ.ID.NO.: 1) and the C-terminal primer 5′-[…] […] (SEQ.ID.NO.: 2) were used to amplify the motor domain and the neck linker region. The PCR products were digested with AseI and XhoI, ligated into the NdeI/XhoI digestion product of pRSETa (Invitrogen) and transformed into E. coli BL21 (DE3).
Cells were grown at 37° C. to an OD600 of 0.5. […]
The kinesin motor domain is incubated with microtubules, 1 mM ATP (1:1 MgCl2: Na-ATP), and compound at 23° C. in buffer containing 80 mM K-HEPES (pH 7.0), 1 mM EGTA, 1 mM DTT, 1 mM MgCl2, and 50 mM KCl. […] Free phosphate from the ATP hydrolysis reaction is measured via a quinaldine red/ammonium molybdate assay by adding 150 μl of quench C buffer containing a 2:1 ratio of quench A:quench B. Quench A contains 0.1 mg/ml quinaldine red and 0.14% polyvinyl alcohol; quench B contains 12.3 mM ammonium molybdate tetrahydrate in 1.15 M sulfuric acid. The reaction is incubated for 10 minutes at 23° C., and the absorbance of the phospho-molybdate complex is measured at 540 nm.

One may read the IC50 as the concentration needed to halve the response being measured. Read a low IC50 as greater potency. Consider `CCC(c1nc2c(c(=O)n1Cc1ccccc1)CCC2)N(CCN(C)C)C(=O)c1ccc(Br)cc1` (stereo not shown) [1-5, N-[1-(3-benzyl-4-oxo-4,5,6,7-tetrahydro-3H-cyclopenta[d]pyriinidin-2-yl)propyl]-4-bromo-N-[2-(dimethylamino)ethyl]benzamide], for which the IC50 is ≤ 50 µM.
